The values that follow come from patent publication US7538094B2, “Composition containing ribavirin and use thereof” (Three Rivers Pharmacueticals, LLC, priority 2002, dated 2009).

For data set [1] the following is noted: cited from earlier work.
Data set [2] in a line: Angle of repose (flowability). The data set is classed as physicochemical. Conditions: sample passed through 12 mesh screen, funnel with 1 cm aperture. The text has this: Another measure of flowability can be made by determining a material's angle of repose. The angle of repose is a standard test in the pharmaceutical industry to establish the relative flowability of a solid pharmaceutical formulation. (See, e.g., Lachman et al., “The Theory and Practice of Industrial Pharmacy” 3rd Ed. (1986) pp 67-68). A greater angle of repose means a less flowable material. Remington's Pharmaceuticals Sciences lists the angle of repose for glass beads (a high flowing material) at 23 degrees and for granular limestone (a poor flowing material) at 64 degrees. Cohesive materials can be as high as 90 degrees. (See Remington's Pharmaceutical Sciences, 19th Ed. Mack Publishing Co., (1995) p. 1607).
Angle of repose data was collected for ribavirin composition made in accordance with Examples 1 and 3 and compared to bulk ribavirin and a commercial ribavirin product. In determining the angle of repose for the compositions of the present invention and comparative examples thereto, a sample was passed through a 12 mesh screen to break up agglomerates. […] The funnel height was then measured, as well as the diameter (width) of the sample. […] The angle of repose for a given sample was calculated by taking the inverse tangent of the following equation: Tan (a)=2H/W, where H is the height of the funnel from the paper and W is the averaged diameter of the poured sample at its base.

The conditions of data set [3]: cited from earlier work. The source holds these as a separate data set.

Turning to `NC(=O)c1ncn([C@@H]2O[C@H](CO)[C@@H](O)[C@H]2O)n1` [ribavirin, 1-β-D-ribofuranosyl-1H-1,2,4-triazole-3-carboxamide], the solubility result in data set [1] is “water-soluble”. Moreover, the Repose Angle, Trial 1 in data set [2] (Trial 1) turned out to be 44 °. This compound also yielded a Repose Angle, Trial 2 in data set [2] (Trial 2) of 42 °. Also, the bioavailability with food result in data set [3] (administered with a high fat meal) is listed as “increase significantly”. The biological half-life result in data set [3] (in vivo, after multiple oral dosing (steady state)) is listed as “ca. 298 hours”. In addition, the “bioavailability (AUC) versus dose” value in data set [3] (oral administration, Physician's Desk Reference) was “increases linearly with the dose”. The “maximum concentration of the drug in vivo (Cmax) versus dose” value in data set [3] (oral administration, curvilinear, reaching an asymptote, Physician's Desk Reference) is given as “does not increase linearly with the dose”.
